Results as given in patent US7053052B2, “Therapies involving mutated heat shock transcription factor” (priority 1997, dated 2006).
Entries after “also recorded” stand apart in the source; their conditions may differ.

How the values were obtained:
HepG2 cells [1] = experiment: Mortality from simulated ischemia (LDH release); format: cell-based, human
Protocol: After heat treatment, cultures were incubated overnight at 37° C. When trypan blue exclusion was used as the criterion for cell survival, cells (unattached and attached) were harvested, and trypan blue-excluding cells were counted in a hemocytometer. In some experiments, cell killing was estimated by the lactate dehydrogenase (LDH) release assay, using the LDH Assay Kit from Sigma Corp. (St. Louis, Mo.). To quantify detachment from the substratum, cultures were washed three times with prewarmed DMEM, and the number of cells remaining on dishes were determined using a hemocytometer. […] Ischemic conditions were simulated as described previously (Mestril, R. et al., J. Clin. Invest., 93:759–767 (1994)). Briefly, cells were placed in slightly hypotonic HBSS (1.3 mM CaCl2, 5 mM KCl, 0.3 mM KH2PO4, 0.5 mM MgCl2, 0.4 mM MgSO4, 69 mM NaCl, 4 mM NaHCO3, 0.3 mM Na2HPO4) without glucose or serum, and made hypoxic for 4–6 hours at 37° C. Control cells were left under normoxic conditions for the same period of time. Hypoxia was achieved by using an air-tight jar from which oxygen was removed by displacement with argon. After 10 minutes of gas exchange, the oxygen concentration was <0.2%. Hypoxia was maintained using the oxygen-consuming GasPak System from BBL Microbiology Systems (Cockeysville, Md.).

HeLa-CAT cells [2] = experiment: Cell proliferation and cell cycle distribution (FACS, propidium iodide); format: cell-based, human
Protocol: This cell cycle arrest was followed by flow cytometry of propidium iodide-stained cells. To determine whether mutHSF-induced expression (enhanced expression) of hsp protects the cells from hyperthermia-induced cell cycle arrest, cells were either co-transfected with a CMV promoter-linked mutHSF gene construct and a GFP construct, or singly transfected with the GFP construct. After heat treatment and postincubation as described herein, cells were sorted based on GFP fluorescence. […]
For fluorescence-activated cell sorting, cells from cultures transfected or co-transfected with EGFP-expressing construct were removed from tissue culture dishes by treatment with 0.04% EDTA in phosphate-buffered saline (PBS) and were resuspended in PBS. […] Excitation wavelength was 488 nm, and detection wave lengths were 650 nm (long pass) for propidium iodide and 520 nm (narrow band) for detection of EGFP fluorescence. […]
Protein synthesis dropped to about 10% of the normal rate during heat shock but, after a 1 hour recovery period, returned to pre-shock level in HSF1(+)-expressing but not control cells. […] Fluorescence-activated cell sorting and analyses of DNA content were performed on a FACStar Plus machine (Becton-Dickinson, San Jose, Calif.) configured as described elsewhere (Parks, D. R. et al., In: The Handbook of Experimental Immunology, 4th Edition. Vol. 29. pp. 1–29, 1986). […]

HepG2 cells [3] = experiment: Mortality from exposure to cyclophosphamide (LDH release, mortality); settings: cyclophosphamide 20 mM
HeLa-CAT cells [4] = experiment: Cell survival after heat shock, count of β-galactosidase-positive cells; format: cell-based, human; settings: heat shock 48° C./10 minutes; p<0.05
Protocol: To also assess the effect of expression of HSF1(−) on stress-induced cell killing, cultures were transfected with a beta-galactosidase gene or co-transfected with the beta-galactosidase gene and the HSF1(−) construct.
Transfected cultures were subjected to a severe heat shock (48° C./10 minutes; about 75% cell survival) or left untreated, and β-galactosidase-positive cells were counted the following day. Untreated, singly and doubly transfected cultures contained similar number of β-galactosidase-expressing cells. In the heat-shocked cultures, the presence of HSF1(−) increased cell killing by about 60% (p<0.05). Thus, the increase in Hsp levels occurring as a consequence of a stressful event has a significant, immediate protective effect.

Row | Substance | decrease of mortality from simulated ischemia (HepG2 cells [1]) | heat-induced G2/M cell cycle arrest (HeLa-CAT cells [2]; 43° C. heat shock, GFP-positive cells, listed as mutHSF) | cell proliferation (HeLa-CAT cells [2]; FACS-isolated, days two to four) | reduction of mortality by LDH leakage assay (HepG2 cells [3]) [%] | reduction of cyclophosphamide-caused mortality (HepG2 cells [3]; 24 hour) [%] | increase in cell killing (HeLa-CAT cells [4])
1 | human HSF1d202–316 [HSF1(+)] | more than 50% | much lower proportion of cells in G2/M phase; also recorded: only a small fraction | severely inhibited cell proliferation | 43 | 55 | 
2 | human HSF1d453–523 [HSF1(−)] |  |  |  |  |  | about 60%
